“Also recorded” adds a separate entry of the source.
How the values were obtained:
[1] = molecular target: T1, glucocorticoid receptor (GR) (Homo sapiens, UniProt P04150); conditions: cited from earlier work
T1 sequence (P04150 1-777): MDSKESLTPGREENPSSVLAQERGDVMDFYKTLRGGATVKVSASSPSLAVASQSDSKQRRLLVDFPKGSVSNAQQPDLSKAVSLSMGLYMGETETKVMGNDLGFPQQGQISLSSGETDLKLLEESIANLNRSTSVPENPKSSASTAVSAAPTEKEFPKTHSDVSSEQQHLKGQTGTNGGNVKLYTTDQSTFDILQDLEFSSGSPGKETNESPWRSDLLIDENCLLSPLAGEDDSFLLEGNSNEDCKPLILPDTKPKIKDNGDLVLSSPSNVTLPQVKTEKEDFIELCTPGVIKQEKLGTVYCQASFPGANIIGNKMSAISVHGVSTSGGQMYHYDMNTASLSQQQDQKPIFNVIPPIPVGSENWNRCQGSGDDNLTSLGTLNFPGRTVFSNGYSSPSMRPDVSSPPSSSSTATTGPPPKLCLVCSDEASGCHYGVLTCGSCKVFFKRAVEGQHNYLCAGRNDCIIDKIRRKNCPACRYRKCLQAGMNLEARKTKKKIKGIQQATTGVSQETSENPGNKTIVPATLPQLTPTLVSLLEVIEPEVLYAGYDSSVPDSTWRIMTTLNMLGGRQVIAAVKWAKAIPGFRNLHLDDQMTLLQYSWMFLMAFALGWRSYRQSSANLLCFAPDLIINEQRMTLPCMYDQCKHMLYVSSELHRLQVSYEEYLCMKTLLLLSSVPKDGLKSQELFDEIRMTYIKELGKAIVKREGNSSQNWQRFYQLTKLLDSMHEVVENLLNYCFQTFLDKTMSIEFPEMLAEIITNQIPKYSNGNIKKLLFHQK

aromatase enzyme = molecular target: T2, aromatase enzyme (Homo sapiens, UniProt P11511); conditions: cited from earlier work
T2 sequence (P11511 1-503): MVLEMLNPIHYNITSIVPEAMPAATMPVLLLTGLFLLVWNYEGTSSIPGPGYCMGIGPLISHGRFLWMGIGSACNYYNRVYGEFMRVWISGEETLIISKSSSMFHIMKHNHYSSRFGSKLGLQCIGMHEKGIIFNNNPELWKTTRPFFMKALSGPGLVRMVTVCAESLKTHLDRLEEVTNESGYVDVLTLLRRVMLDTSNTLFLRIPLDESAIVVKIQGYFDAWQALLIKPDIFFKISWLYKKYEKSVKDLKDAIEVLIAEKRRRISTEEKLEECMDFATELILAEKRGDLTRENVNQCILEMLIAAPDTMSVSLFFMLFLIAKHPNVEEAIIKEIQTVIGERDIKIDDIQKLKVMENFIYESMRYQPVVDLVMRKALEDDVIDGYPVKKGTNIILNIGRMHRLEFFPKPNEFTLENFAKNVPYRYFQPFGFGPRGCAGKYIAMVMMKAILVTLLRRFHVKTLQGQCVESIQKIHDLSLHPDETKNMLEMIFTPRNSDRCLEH

[2] = test system: LAM fibroblasts from Arom^hum mice; experiment: Click-iT EdU proliferation assay; format: cell-based, mouse; conditions: 1 μM antagonist; E2 (10 nM)+R5020 (100 nM)
[3] = test system: LAM primary fibroblasts from Arom^hum mice; experiment: mRNA levels of P4/PGR-responsive and fibrotic genes in LAM primary fibroblasts; format: cell-based, mouse
[4] = long-term use; cited from earlier work
PGR = molecular target: T3, PGR (Homo sapiens, UniProt P06401); conditions: cited from earlier work
T3 sequence (P06401 1-933): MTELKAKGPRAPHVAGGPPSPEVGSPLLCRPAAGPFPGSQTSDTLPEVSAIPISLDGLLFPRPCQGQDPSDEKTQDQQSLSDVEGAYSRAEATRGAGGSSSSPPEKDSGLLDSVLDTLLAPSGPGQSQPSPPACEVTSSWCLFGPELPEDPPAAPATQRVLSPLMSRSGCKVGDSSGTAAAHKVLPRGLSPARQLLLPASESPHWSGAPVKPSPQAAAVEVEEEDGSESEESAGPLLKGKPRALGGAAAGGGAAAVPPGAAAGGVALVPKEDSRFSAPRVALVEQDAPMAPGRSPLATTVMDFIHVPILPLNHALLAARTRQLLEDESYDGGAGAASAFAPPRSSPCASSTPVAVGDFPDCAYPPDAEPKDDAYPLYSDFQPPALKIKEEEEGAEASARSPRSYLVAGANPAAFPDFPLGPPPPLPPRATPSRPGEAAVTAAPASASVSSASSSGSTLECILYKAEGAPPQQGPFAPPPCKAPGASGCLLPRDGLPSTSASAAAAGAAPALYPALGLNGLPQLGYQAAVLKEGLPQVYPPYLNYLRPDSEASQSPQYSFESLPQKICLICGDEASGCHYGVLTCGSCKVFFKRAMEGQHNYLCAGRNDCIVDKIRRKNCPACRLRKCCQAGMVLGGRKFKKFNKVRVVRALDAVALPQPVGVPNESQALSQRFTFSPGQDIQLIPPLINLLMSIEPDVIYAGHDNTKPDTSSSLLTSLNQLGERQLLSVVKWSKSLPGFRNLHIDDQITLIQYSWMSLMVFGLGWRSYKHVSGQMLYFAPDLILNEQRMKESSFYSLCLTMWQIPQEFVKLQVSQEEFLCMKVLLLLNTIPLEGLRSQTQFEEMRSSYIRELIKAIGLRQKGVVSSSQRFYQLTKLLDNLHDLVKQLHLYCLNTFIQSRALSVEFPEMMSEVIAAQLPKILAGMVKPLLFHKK

Structure (SMILES): CN(C)c1ccc([C@H]2C[C@]3(C)[C@@H](CC[C@]3(O)CCCO)[C@@H]3CCC4=CC(=O)CCC4=C32)cc1 [ZK299, Onapristone]
- anti-glucocorticoid activity [1]: minimal or no antiglucocorticoid properties
- inhibition of aromatase enzyme activity (aromatase enzyme): weak aromatase inhibitor
- inhibition of E2+R5020-stimulated LAM fibroblast proliferation [2]: inhibited; also recorded: blocked
- E2+R5020-induced expression of P4/PGR-responsive (Greb1, Cyp7b1) and fibrotic genes (Adamtsl1, Col1a1, Col14a1) ([3]; 1 μM antagonist, pretreated 2 h before E2 (10 nM)+R5020 (100 nM)): significantly decreased; also recorded: strongest inhibition
- E2+R5020-stimulated expression of Col1a1 and Col12a1, blockade ([3]; pretreatment with 1 μM antagonist): blocked
- liver toxicity [4]: significant liver toxicity
- P4/PGR antagonism and PGR selectivity (PGR): highly PGR-selective pure P4 antagonist
